From US20210198277A1, “AMINE-SUBSTITUTED ARYL OR HETEROARYL COMPOUNDS” (Epizyme, Inc., priority 2016, published 2021)

How the values were obtained:
EHMT1 = molecular target: T1, EHMT1 (Homo sapiens, UniProt Q9H9B1); experiment: EHMT1 enzyme assay on peptide substrate (EHMT1 PEP); format: biochemical; settings: Table VI; read-out: EHMT1 PEP IC50
T1 sequence (Q9H9B1 1-1298): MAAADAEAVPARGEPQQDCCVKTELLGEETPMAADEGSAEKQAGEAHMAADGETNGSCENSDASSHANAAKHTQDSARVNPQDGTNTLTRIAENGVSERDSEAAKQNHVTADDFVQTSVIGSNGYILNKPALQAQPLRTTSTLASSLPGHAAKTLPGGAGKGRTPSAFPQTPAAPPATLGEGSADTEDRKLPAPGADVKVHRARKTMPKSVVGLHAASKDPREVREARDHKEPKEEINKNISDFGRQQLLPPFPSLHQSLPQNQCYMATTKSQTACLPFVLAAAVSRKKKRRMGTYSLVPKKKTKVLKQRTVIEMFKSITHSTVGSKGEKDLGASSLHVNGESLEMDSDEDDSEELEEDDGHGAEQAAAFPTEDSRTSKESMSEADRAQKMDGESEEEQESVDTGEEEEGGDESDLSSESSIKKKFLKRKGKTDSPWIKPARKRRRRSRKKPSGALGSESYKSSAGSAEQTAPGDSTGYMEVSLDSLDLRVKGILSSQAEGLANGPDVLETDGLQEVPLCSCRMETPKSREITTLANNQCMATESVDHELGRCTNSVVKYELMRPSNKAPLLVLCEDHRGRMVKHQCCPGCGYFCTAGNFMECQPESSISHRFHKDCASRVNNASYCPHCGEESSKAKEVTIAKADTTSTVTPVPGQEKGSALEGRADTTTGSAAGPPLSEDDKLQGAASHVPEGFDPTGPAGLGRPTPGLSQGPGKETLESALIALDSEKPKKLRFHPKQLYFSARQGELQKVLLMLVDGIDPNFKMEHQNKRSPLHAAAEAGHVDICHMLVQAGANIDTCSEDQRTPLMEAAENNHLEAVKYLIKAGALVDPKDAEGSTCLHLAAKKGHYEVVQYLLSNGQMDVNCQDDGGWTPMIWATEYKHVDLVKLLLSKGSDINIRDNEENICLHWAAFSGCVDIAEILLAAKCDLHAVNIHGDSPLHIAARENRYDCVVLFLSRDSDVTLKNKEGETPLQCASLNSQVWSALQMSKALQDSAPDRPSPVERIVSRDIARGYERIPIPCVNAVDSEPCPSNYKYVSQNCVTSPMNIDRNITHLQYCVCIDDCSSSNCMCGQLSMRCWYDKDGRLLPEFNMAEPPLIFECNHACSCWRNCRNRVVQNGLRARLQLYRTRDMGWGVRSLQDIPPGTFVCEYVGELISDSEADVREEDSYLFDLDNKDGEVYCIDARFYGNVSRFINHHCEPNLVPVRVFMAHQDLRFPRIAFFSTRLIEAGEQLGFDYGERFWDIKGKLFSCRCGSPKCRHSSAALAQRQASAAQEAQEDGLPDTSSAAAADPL

human EHMT2 913-1193 = molecular target: T2, human EHMT2 913-1193 (Homo sapiens, UniProt Q96KQ7); experiment: EHMT2 enzyme assay on histone peptide substrate (EHMT2 PEP); format: biochemical; settings: Table VI; read-out: EHMT2 PEP IC50
T2 construct: recombinant purified human EHMT2 913-1193, Viva; purchased Viva
T2 sequence (Q96KQ7 913-1193): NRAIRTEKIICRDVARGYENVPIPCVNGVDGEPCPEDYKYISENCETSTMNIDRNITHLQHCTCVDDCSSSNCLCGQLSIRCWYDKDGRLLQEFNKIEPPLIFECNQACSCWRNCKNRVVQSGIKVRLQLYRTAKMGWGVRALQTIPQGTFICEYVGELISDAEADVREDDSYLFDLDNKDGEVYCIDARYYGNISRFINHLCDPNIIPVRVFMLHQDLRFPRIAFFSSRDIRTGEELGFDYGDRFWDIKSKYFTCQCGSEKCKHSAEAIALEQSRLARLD
Summary of the method: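 Compounds (10-point, 3-fold dilutions, top 50 μM final, 2% DMSO) preincubated 30 min with 0.031 nM EHMT2 in 20 mM Bicine pH 7.5, 0.002% Tween 20, 0.005% gelatin, 1 mM TCEP. Biotinylated histone peptide methylated with ^3H-SAM 60 min at room temperature. Quenched with unlabeled SAM; product captured on streptavidin Flashplate, scintillation counted.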

SMILES | IC50 (EHMT1) [nM] | IC50 (human EHMT2 913-1193) [nM]
CCN1CCO[C@@H](COc2cc(Nc3nccc(NC)n3)ccc2OC)C1 [Compound 932] | 1000 to 10000 | > 10000
CNc1ccnc(Nc2ccc(OC)c(OC[C@H]3CNCCO3)c2)n1 [Compound 933] | 1000 to 10000 | > 10000
CNc1ccnc(Nc2ccc(OC)c(OC[C@@H]3CN(C)CCO3)c2)n1 [Compound 936] | > 10000 | > 10000
CCN1CCO[C@H](COc2cc(Nc3nccc(NC)n3)ccc2OC)C1 [Compound 937] | > 10000 | > 10000
CNc1ccnc(Nc2ccc(OC)c(OC[C@@H]3CNCCO3)c2)n1 [Compound 938] | > 10000 | > 10000
CNc1ccnc(Nc2ccc(OC)c(OC[C@@H](C)CN3CCC3)c2)n1 [Compound 943] | 1000 to 10000 | 1000 to 10000
CNc1ccnc(Nc2ccc(OC)c(OC[C@H](C)CN3CCC3)c2)n1 [Compound 945] | < 100 | 100 to 1000
CCN1CC[C@@H](COc2cc(Nc3nc(C)cc4[nH]ncc34)ncc2OC)C1 [Compound 947] | < 100 | < 100
CNc1cc(C)nc(Nc2cnc(OC)c(OCCCN3CCC3)c2)n1 [Compound 949] | < 100 | 100 to 1000
COc1cc2c(C3CCN(C)CC3)nc(N3CCCC3)nc2cc1OCCCN1CC(O)C1 [Compound 950] | 100 to 1000 | 100 to 1000
CCN1CC(COc2cc3nc(NC)nc(C4CCN(C)CC4)c3cc2OC)C1 [Compound 951] | < 100 | 100 to 1000
CNc1nc(C2=CC(C)(C)NC(C)(C)C2)c2cc(OC)c(OCCCN3CCCC3)cc2n1 [Compound 961] | 1000 to 10000 | 1000 to 10000
CNc1cc(C)nc(Nc2ccc(OC)c(OC[C@H](O)CNC3CCC3)c2)n1 [Compound 962] | 100 to 1000 | 100 to 1000
CNc1cc(C)nc(Nc2cnc(OC)c(OC[C@H](O)CN3CCC3)c2)n1 [Compound 963] | < 100 | < 100
CNCCNCc1cc(Nc2nc(C)cc(NC)n2)ccc1OC [Compound 964] | < 100 | 100 to 1000
CNc1cc(C)nc(Nc2ccc(OC)c(CNCCN3CCC3)c2)n1 [Compound 965] | < 100 | < 100
CNc1ccnc(Nc2cnc(OC)c(OC[C@@H]3CCN(C4CCC4)C3)n2)n1 [Compound 974] | < 100 | 100 to 1000
CNc1cc(C)nc(Nc2ccc(OC)c(OC[C@H](O)CN3CC(C)C3)c2)n1 [Compound 985] | < 100 | 100 to 1000
CNc1cc(C)nc(Nc2ccc(OC)c(OC[C@H](O)CN3CC(F)C3)c2)n1 [Compound 986] | 100 to 1000 | 100 to 1000
CNc1cc(C)nc(Nc2ccc(OC)c(CNCCN(C)C)c2)n1 [Compound 990] | < 100 | < 100
CNc1ccnc(Nc2ccc(OC)c(OCC(C)(O)CN3CCC3)c2)n1 (centres unmarked) [Compound 1005] | 1000 to 10000 | 1000 to 10000
CCN1CCC(O)(COc2cc(Nc3nccc(NC)n3)ccc2OC)C1 (centres unmarked) [Compound 1006] | < 100 | 100 to 1000
CCN1CCC(O)(COc2cc(Nc3nccc(NC)n3)ccc2OC)C1 (centres unmarked) [Compound 1007] | 1000 to 10000 | > 10000
CNc1ccnc(Nc2ccc(OC)c(OCC(C)CN3CCC3)c2)n1 (centres unmarked) [Compound 1008] | < 100 | 100 to 1000
CNCC(C)COc1cc(Nc2nccc(NC)n2)ccc1OC (centres unmarked) [Compound 1009] | 1000 to 10000 | 1000 to 10000
CNCCC(C)Oc1cc(Nc2nccc(NC)n2)ccc1OC (centres unmarked) [Compound 1011] | 1000 to 10000 | 1000 to 10000
CNc1ccnc(Nc2ccc(OC)c(OCCC(C)N3CCC3)c2)n1 (centres unmarked) [Compound 1014] | 100 to 1000 | 1000 to 10000
CNc1ccnc(Nc2ccc(OC)c(OCCC(C)NC)c2)n1 (centres unmarked) [Compound 1016] | 100 to 1000 | 1000 to 10000
